Patent publication US7560473B2 (Institute of Pharmacology and Toxicology Academy of …, priority 2001, dated 2009)
Marks after values point to notes of the source that are not given here.

Experiments:
[1] = target: T1, ATP-sensitive potassium channels in vascular smooth muscles (Rattus norvegicus, UniProt Q63563); assay: Association kinetics of [^3H]P1075 binding in aortic rings; design: species or system Wistar rat; conditions: 37° C.; drug M: Compound 1 10^−4, Glibencamide 10^−5, ATP 10^−2, ADP 10^−3, UDP 5 × 10^−5, GTP 10^−3, Ade 10^−3; control 4.36 ± 0.45; means ± SD, n = 4~10
T1 construct: The aorta was cut into about 3-5 mm arterial rings and the vascular endothelium was scraped off; from tissue; host or cells: endothelium-removed aortic rings of male Wistar rats
Text: Biological activity experiment 4. Allosteric regulation of novel compounds on ATP-sensitive potassium channels in vascular smooth muscles.
To study the allosteric regulation of compound 1 on ATP-sensitive potassium channels in vascular smooth muscles, the radio-labled-ligand was used in the biological activity experiment 4.
1. The allosteric regulation of compound 1 on the binding sites for the selective KATP blocker glibenclamide in vascular smooth muscles was studied as follows: After decapitated, the male Wistar rat (340±20 g) was immediately incised open the thoracic cavity. The aorta was dissected and immersed in the 4° C. buffer containing 10 mM HEPES to wash off the blood, then carefully extirpated the fat, peripheral connective tissues and thrombus. The aorta was cut into about 3-5 mm arterial rings and the vascular endothelium was scraped off with wet tampon. The arterial rings were blotted, weighted and transferred into the tubes containing proper amount of ice colded physiological saline buffer. In the association kinetics experiment, the arterial circles in the tubes were incubated with, compound 1(10^−4M), pinacidil(10^−4M), ATP(10^−2M), ADP(10^−3M), Ade(10^−3M), […] and equal volume of buffer respectively for 10 min in 25° C. water bath, and then added [^3H]-glibenclamide(3 nM). At 5,10,15,20,30,60,90 and 120 min after incubation, 9 mL ice colded Tris buffer (50 mM) was added to terminate the reaction. After washing off the free and bound [^3H]-glibenclamide, the aorta was blotted, transferred to a scintillator, added 50 uL 30% H2O2 and reacted for 2 h at 80° C. After cooling, 2.5 mL ethyl glycol and 5 mL 1% B-BPD xylene were added in sequence, kept stationary for 8 h and measured under a scintillometer for cpm value. The resulting data were fit into a regression line with In[BEQ/(BEQ-Bt)]vs.t and the parameters for association kinetics were obtained. In the disassociation kinetics experiments, the aorta treated as described above and [^3H]-glibenclamide were incubated for 60 min at 25° C., and then 30 uM glibenclamide was added. 0,5,15,30,60,90 and 120 min later, the cpm values for the complex of [^3H]-glibenclamide and KATP were measured. The resulting data were fit into a regression line with In(B/BEQ)]vs.t and the parameters for disassociation kinetics were obtained. 2. The allosteric regulation of compound 1 on the binding sites for the selective KATP activator P1075 in vascular smooth muscles was studied with the method as described above, but some conditions should be changed as follows: the incubation temperature was 37° C. instead of 25° C.;P1075 was used instead of glibenclamide; In the association kinetics experiments, the time points for sampling were 5,10,15,20,30,45,60 and 90 min, while in the disassociation kinetics experiments, that were 1,3,5,10,20,30,45 and 60 min. Biological activity experiment 5. The effects of compound 1 on the specific binding of high selective activator [^3H]P1075 with ATP-sensitive potassium channels in vascular smooth muscles.

SHRsp = assay: Prophylaxis and treatment of SHRsp cerebral apoplexy; type: in vivo, rats; conditions: 40 mg · kg^−1d^−1 fed
Method: Biological activity experiment 8 the prophylaxis and treatment of cerebral apoplexy with compound 1 of formula Ia
The methods of biological activity experiments were carried out as follows: Desired concentration of compound 1 was prepared with distilled water, while desired concentration of nimodipine was prepared with market available Jinglongyu^T oil. 30 male and 30 female SHRsp (10 weeks old, 120-180 g) were purchased from the vascular disease research center of Academy of Military Medical Science. All SHRsp were divided randomly into five groups based on blood pressure, body weight and sex: control group (fed with equal amount of Jinglongyu^T oil), […], […], […], and 4.0 mg.kg^−1d^−1 nimodipine treated group. Each group contained 12 animals and 4-5 animals were fed in a cage. The feedstaff (containing 23-24% protein) was purchased from experimental animal center of Academy of Military Medical Science. The animals were fed with tap water containing 1% NaCl to accelerate the onset of cerebral apoplexy. 12 normal WKY rats (with the same age and sex with the above) were selected as control, and fed with tap water and the same feedstuff. When reached 11 weeks old, the animals were fed with drugs for experiments.

[2] = target: T1, ATP-sensitive potassium channels in vascular smooth muscles; assay: Inhibition of specific binding of [^3H]P1075 in endothelium-removed rat aorta; design: species or system Wistar rat; conditions: [^3H] P1075 5 nmol L^−1, 90 minutes at 37° C., endothelium-removed rat aorta
[3] = tested on: rats anesthetized with pentobarbital sodium; assay: Effects on blood pressure, heart rate, cardiac contraction and dilation in rats anesthetized with pentobarbital sodium; type: in vivo, Wistar rats; design: unit not given here; conditions: change after injection through femoral vein, '+' = increase, all others = decrease; for MBP: mean blood pressure: n = 3~5, doses mg/kg: 2, 8, 12: 10, 3-7, 9-11, 40-44: 5; for DBP: diastolic blood pressure / HR: heart rate / LVSP: left ventricular systolic pressure / SBP: systolic blood pressure / Vpm: the physiological velocity of contractile element shorting / −dp/dtmax: the maximal rate of the decrease of left ventricular pressure: mean, n = 3~5, doses mg/kg: 2, 8, 12: 10, 3-7, 9-11, 40-44: 5
Method: Biological activity experiment 1. The effects of 16 compounds represented by formula I on blood pressure, heart rate, cardiac contraction and dilation in rats anesthetized with pentobarbital sodium.
The methods of biological activity experiment 1 were as follows: Male Wistar rats, weighing 280±30 g were purchased from the experimental animal center of Academy of Military Medical Sciences. Rats were anesthetized with pentobarbital sodium (45 mg/kg) by peritoneal injection. A PE50 polyethylene catheter was inserted into the left ventricle through right carotid artery for cardiac function measurement with a pressure energe exchanger, wherein the signal is put into a SMUP-PC biosignal processing system. Cardiac functional parameters such as HR, LVSP, +dp/dtmax, −dp/dtmax and Vpm were recorded. Another two PE50 polyethylene catheters were inserted into the right femoral artery and vein respectively for blood pressure measurement wherein the artery cathether was linked to a four-channel physiology recorder (RM-6000) through a MPU-0.5A Type pressure energe exchanger, which recorded SBP, DBP and MBP, while the vein catheter was used for compound administration. The methods were described by Liu Wei et al: Liu Wei, Wang Hai, Xiao Wen-Bin. […] Bull Acad Mil Med Sci 1996;20(4):245˜248.

[4] = tested on: outward potassium currents of rat tail arterial SMCs; assay: Whole cell recording of outward potassium currents in rat tail arterial SMCs; type: cell-based, Wistar rats; conditions: for Currents, + Compound: outward potassium current amplitude after compound 100 μmol L^−1 in the bath; for Currents, + Compound / Currents, Control (before compound application): X ± SD n = 5; for Currents, Control (before compound application): outward potassium current amplitude before compound application, same cells
Text: Biological activity experiments 6. The effects of novel compounds on potassium currents in isolated arterial vascular smooth muscle cells (SMCs).
The outward currents were, elicited in rat tail arterial SMCs by superfusing extracellular solution under whole cell recording configuration that the depolarizing pulse were applied from −30 mV to +100 mV with the holding potential of −40 mV in 100 ms, 10 mV clamp steps, a frequency of 5 KHz. The compounds were applied in the bath at the concentrations of 100 μmol L^−1. The amplitude of the outward potassium currents was recorded before and after compound application Values were expressed as means±SD. Statistical significance between two groups was evaluated by student's t-test for paired data * P<0.05 **P<0.01 vs control.
1. Preparation of single smooth muscle cells from rat tail arteries: Male Wistar rats (200-250 g) were killed by exsanguination. The tail artery was dissected out and transferred into cold physiological salt solution (PSS) of the following composition (in mM): NaCl 118.3, KCl 4.7, KH2PO4 1.2, MgSO4 1.2, NaHCO3 25.0, CaCl2 2.5, EDTA 0.026 and Glucose 5.0 pH7.4. With the use of a dissecting microscope, the connective tissues were removed and the artery was cut open longitudinally. Endothelium was removed carefully with a cotton swab then the artery was cut into segments with 1 mm long and placed in 4° C. the extracellular solution containing (in mM) NaCl 130, KCl 5, MgCl2 1.2, HEPES 10, Glucose 10, pH7.2 for 20 min. After this incubation, the medium was changed to enzyme solution which was composed of collagenase I (1 mg ml^−1), papain (5 mg ml^−) and bovine serum albumin (2 mg ml^−1). The tissues, were incubated in this solution for 40 min, and then rinsed three times triturated using a fire-polished Pasteur pipette until the medium turned cloudily. The cell suspension was stored in the refrigerator at 4° C.
3. Whole cell recordings: A bath dish with the smooth muscle cells (SMCs) attached and superfused with the extracellular solution at a flow rate of 2 ml min^−1 was mounted onto the stage of an inverted-phase contrast microscope. The microelectrodes having a resistance of (5-8 MΩ) were made from boroscilicate thin-wall glass capillaries, using an automatic multiple-stage, electronic puller (PP830 Japan) and then heat-polished. After establishing a high resistance seal, the patch membrane was disrupted by negative pressure. A commercial patch clamp amplifier (Axon 200B) was used to generate and apply voltages and sample current signals from the cell.

T1 sequence (Q63563 1-1545 isoform Q63563-2): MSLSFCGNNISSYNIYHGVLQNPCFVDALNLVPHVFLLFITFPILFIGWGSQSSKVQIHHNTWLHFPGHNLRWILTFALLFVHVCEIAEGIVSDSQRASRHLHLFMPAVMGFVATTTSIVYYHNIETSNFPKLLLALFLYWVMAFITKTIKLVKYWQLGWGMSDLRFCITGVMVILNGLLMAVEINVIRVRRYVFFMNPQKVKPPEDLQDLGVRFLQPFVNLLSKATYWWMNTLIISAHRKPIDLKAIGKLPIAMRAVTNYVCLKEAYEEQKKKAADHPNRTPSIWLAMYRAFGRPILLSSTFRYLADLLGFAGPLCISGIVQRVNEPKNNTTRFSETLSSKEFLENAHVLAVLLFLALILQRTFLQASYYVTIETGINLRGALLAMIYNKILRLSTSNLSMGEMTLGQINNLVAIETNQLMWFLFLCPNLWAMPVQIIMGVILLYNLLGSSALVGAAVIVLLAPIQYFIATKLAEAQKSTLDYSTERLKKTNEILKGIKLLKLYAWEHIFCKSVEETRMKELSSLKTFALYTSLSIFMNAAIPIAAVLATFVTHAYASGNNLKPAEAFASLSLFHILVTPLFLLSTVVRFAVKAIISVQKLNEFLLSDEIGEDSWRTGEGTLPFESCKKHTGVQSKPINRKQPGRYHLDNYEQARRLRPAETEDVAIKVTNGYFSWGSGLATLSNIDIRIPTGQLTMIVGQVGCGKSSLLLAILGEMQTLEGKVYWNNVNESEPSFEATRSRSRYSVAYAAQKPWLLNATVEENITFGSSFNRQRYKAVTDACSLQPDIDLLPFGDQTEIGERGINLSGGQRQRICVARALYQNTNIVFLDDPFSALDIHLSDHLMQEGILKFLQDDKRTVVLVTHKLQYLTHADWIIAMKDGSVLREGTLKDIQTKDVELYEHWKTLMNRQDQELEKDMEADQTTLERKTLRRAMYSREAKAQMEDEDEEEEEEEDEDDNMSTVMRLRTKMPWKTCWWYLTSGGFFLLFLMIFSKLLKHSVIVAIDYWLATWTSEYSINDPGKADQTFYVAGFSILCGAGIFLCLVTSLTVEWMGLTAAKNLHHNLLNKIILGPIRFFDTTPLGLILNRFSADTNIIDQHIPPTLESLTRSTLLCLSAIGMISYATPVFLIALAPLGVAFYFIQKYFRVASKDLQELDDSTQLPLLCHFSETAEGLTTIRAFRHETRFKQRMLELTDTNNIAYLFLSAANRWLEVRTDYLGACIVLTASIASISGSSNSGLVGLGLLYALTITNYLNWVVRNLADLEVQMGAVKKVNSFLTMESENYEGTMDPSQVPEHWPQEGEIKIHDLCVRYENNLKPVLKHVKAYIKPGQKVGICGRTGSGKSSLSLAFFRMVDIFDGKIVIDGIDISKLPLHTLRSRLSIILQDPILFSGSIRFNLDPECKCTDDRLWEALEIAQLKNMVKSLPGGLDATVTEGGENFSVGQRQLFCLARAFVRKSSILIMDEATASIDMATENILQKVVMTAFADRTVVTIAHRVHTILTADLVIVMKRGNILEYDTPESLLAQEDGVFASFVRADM
T1 sequence (Q63664 whole entry partner): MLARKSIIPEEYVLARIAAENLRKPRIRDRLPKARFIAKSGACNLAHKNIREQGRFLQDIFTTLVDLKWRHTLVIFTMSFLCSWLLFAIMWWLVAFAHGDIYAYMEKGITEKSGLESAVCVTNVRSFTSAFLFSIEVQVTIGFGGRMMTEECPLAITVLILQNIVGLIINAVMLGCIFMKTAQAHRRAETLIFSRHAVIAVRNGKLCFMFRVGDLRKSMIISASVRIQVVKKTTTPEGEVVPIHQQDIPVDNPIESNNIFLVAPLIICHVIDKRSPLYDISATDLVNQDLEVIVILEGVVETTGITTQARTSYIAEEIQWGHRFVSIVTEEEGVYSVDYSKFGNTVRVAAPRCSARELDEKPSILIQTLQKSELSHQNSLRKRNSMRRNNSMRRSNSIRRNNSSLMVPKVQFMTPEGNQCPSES

| Structure (SMILES) | MBP: mean blood pressure [3] | DBP: diastolic blood pressure [3] | HR: heart rate [3] | LVSP: left ventricular systolic pressure [3] | SBP: systolic blood pressure [3] | Vpm: the physiological velocity of contractile element shorting [3] | −dp/dtmax: the maximal rate of the decrease of left ventricular pressure [3] | Currents, + Compound [4] | Currents, Control (before compound application) [4] [nA] | also measured |
| --- | --- | --- | --- | --- | --- | --- | --- | --- | --- | --- |
| Nc1nc2c(ncn2[C@@H]2O[C@H](COP(=O)(O)OP(=O)(O)OP(=O)(O)O)[C@@H](O)[C@H]2O)c(=O)[nH]1 [GTP] | – | – | – | – | – | – | – | – | – | Association kinetics kobs of [^3H]P1075 binding [1]: 3.86 ± 0.19 ×10^−2 nM^−1 · min^−1 |
| COCCOC(=O)C1=C(C)NC(C)=C(C(=O)OC(C)C)C1c1cccc([N+](=O)[O-])c1 (centres unmarked) [Nimodipine, nimodipine, reference compound] | – | – | – | – | – | – | – | – | – | Survival time (SHRsp; control 4.6 ± 3.8, means ± SD): 11.1 ± 2.7 days; Period needed for onset of cerebral apoplexy (SHRsp; control 48.3 ± 7.4, means ± SD): 66.0 ± 14.8 days; Death rate of cerebral apoplexy (SHRsp; n 12, control 50.0): 9.1* %; Rate of cerebral apoplexy (SHRsp; n 12, control 83.3): 36.4* % |
| CCC(C)(C)N=C(NC#N)Nc1cccnc1 [P1075, reference compound] | – | – | – | – | – | – | – | – | – | IC50 [2]: 9.1 ± 1.3 nM |
| CC(C)C(C)(C)N [compound 2] | 24 | 15 | 20 | 116 | 38 | 1.16 | 54 | 1.01 ± 0.57 nA | 0.91 ± 0.49 | – |
| CNC(C)(C)C(C)C [compound 3] | 22 | 19 | 43 | 111 | 29 | 0.49 | 157 | 0.60 ± 0.34 nA | 0.56 ± 0.31 | – |
| CCNC(C)(C)C(C)C [compound 4] | 25 | 23 | 44 | 146 | 31 | 0.45 | 177 | 0.69 ± 0.14** nA | 0.61 ± 0.12 | – |
| CCCCNC(C)(C)C(C)C [compound 6, N-butyl-2,3-dimehyl-2-butylamine] | 49 | 43 | 111 | 263 | 61 | 0.98 | 276 | 1.18 ± 0.54* nA | 0.49 ± 0.23 | – |
| CCC(C)NC(C)(C)C(C)C (centres unmarked) [compound 13, N-(1-methylpropyl)-2,3-dimethyl-2-butylamine] | – | – | – | – | – | – | – | 0.85 ± 0.31** nA | 0.55 ± 0.34 | – |
| CC(C)C(C)(C)NCC1CC1 [compound 15, N-cyclopropylmethyl-2,3-dimethyl-2-butylamine] | – | – | – | – | – | – | – | 1.30 ± 0.45* nA | 0.83 ± 0.24 | – |
| CC(C)C(C)(C)NCc1ccccc1 [compound 24] | – | – | – | – | – | – | – | 0.63 ± 0.19 nA | 0.65 ± 0.19 | – |
| C=CCNC(C)(C)C(C)C [compound 25, N-allyl-2,3-dimethyl-2-butylamine] | – | – | – | – | – | – | – | 1.46 ± 0.50** nA | 0.68 ± 0.19 | stimulation of potassium channel activities (in words) ([4]; 100 μmol L^−1, rat tail arterial SMCs): Maximum potency |
| CC(C)C(C)(C)NC(=O)c1cccnc1 [compound 39] | – | – | – | – | – | – | – | 0.51 ± 0.22 nA | 0.46 ± 0.14 | – |
